Each structure is given as a SMILES string.

In US20240189258A1, “CANCER CELL GROWTH INHIBITING COMPOSITION AND PROCESSED FOOD” (HAGIHARA FARM PRODUCTION INSTITUTE CO., LTD., priority 2021, published 2024) one finds IC50 and melting point data, which are given here for 8 compounds.

The subject of one series is Jurkat cells. Put plainly: Growth inhibiting activity for human leukemia T cell line Jurkat cells (Cell Count Reagent SF, cell viability). It counts as cell-based. Particulars: 72 hours culture, cell viability by absorbance A450-A630. On the procedure: <2. Evaluation of growth inhibiting activity of compounds for human leukemia T cell line Jurkat cells>
The cancer cell growth-inhibiting activity of each sample described above was examined using Jurkat cells, which are from a human leukemia T cell line.
In each well of a 96-well plate, 50 μL of a Jurkat cell suspension prepared at 1×10^5 cells/mL was seeded. A DMSO solution of the evaluation sample was diluted 500 times with the culture medium. Immediately after that, 50 μL of the diluted sample solution was added to the cells to start a cell treatment. After the samples were stirred for 30 seconds using a microplate reader, the cells were cultured in an incubator. After 72 hours, 10 μL of Cell Count Reagent SF was added to each well. After a color reaction was performed in the incubator for 2 to 3 hours, the absorbance at 450 nm and 630 nm was measured using a microplate reader. Cell viability was determined using the following formula (F1).
Cell viability (%)=[(As−Ab)/(Ac−Ab)]×100 (F1)
Note that As, Ab, and Ac are as follows. • As: absorbance of evaluation well • Ab: absorbance of negative control well • Ac: absorbance of control well
All the “absorbance” values in the above-described formula were calculated by subtracting the absorbance at 630 nm (referred to as A630) from the absorbance at 450 nm (referred to as A450) , that is, “A450-A630”. Further, IC50 was calculated by linear approximation on a logarithmic graph using two concentrations that most tightly enclose the 50% cell viability point.

Usually IC50 stands for the concentration that inhibits the measured activity by half. A high value points to lower potency. In the series with Jurkat cells, `C/C(=C\CO)CCC[C@H](C)CCC[C@H](C)CCCC(C)C` (racemic) [rac-PTO, phytol, reference compound] returned a 50% inhibitory concentration (IC50) of 29.8 µM. The melting point is the temperature of the solid-liquid transition. Turning to `C/C(=C\Cn1c(N)ccnc1=O)CCC[C@H](C)CCC[C@H](C)CCCC(C)C` (racemic) [PT28, 6-amino-1-((7R,11R,E)-3,7,11,15-tetramethyl-2-hexadecenyl)pyrimidin-2(1H)-one], the melting point was in the range of 101 to 102 °C. The same compound came in with a 50% inhibitory concentration (IC50) in the series on Jurkat cells (Homo sapiens) of 3.2 µM.

As to `CC[N+](CC)(CC)C/C=C(\C)CCC[C@H](C)CCC[C@H](C)CCCC(C)C.[Br-]` (racemic) [PT27, (7RS,11RS,E)-N,N,N-triethyl-3,7,11,15-tetramethyl-2-hexadecenaminium bromide], the melting point lay in the range of 132 to 135 °C. Further, the IC50 in the series with Jurkat cells (Homo sapiens) amounted to 0.48 µM. For `C/C(=C\CN)CCC[C@H](C)CCC[C@H](C)CCCC(C)C` (racemic) [rac-PT10, (7R,11R,E)-1-amino-3,7,11,15-tetramethyl-2-hexadecene, reference compound], 3.8 µM corresponded to half-maximal inhibition in the series on Jurkat cells (Homo sapiens) (IC50). Still for that read-out and setting: for `C/C(=C\CNC(C)C)CCC[C@H](C)CCC[C@H](C)CCCC(C)C` (racemic) [PT22, (7RS,11RS,E)-1-isopropylamino-3,7,11,15-tetramethyl-2-hexadecene] the value was 2.6 µM.

As to `C/C(=C\C[N+](C)(C)C)CCC[C@H](C)CCC[C@H](C)CCCC(C)C.[Br-]` (racemic) [PT26, (7RS,11RS,E)-N,N,N-trimethyl-3,7,11,15-tetramethyl-2-hexadecenaminium bromide], the melting point fell in the range of 199 to 201 °C. The compound further gave an IC50 with Jurkat cells (Homo sapiens) of 1.41 µM. Consider `C/C(=C\CN(C)C)CCC[C@H](C)CCC[C@H](C)CCCC(C)C` (racemic) [PT21, (7RS,11RS,E)-1-N,N-dimethylamino-3,7,11,15-tetramethyl-2-hexadecene], for which 2.8 µM corresponded to half-maximal inhibition in the series with Jurkat cells (Homo sapiens) (IC50).

The compound `C/C(=C\CNC(C)(C)C)CCC[C@H](C)CCC[C@H](C)CCCC(C)C` (racemic) [PT23, (7RS,11RS,E)-1-t-butylamino-3,7,11,15-tetramethyl-2-hexadecene] registered an IC50 in the series with Jurkat cells (Homo sapiens) of 3.1 µM.
